# Data: publication PMC3472974, “The Bite of the Honeybee: 2-Heptanone Secreted from Honeybee Mandibles during a Bite Acts as a Local Anaesthetic in Insects and Mammals” (PLoS ONE, 2012)
# Marks after values point to notes of the source that are not given here.
# How the values were obtained:
# [1] = tested on: isolated rat sciatic nerve; test: tissue or blood; conditions: for IT50: unit not given in Table 3, seconds per Table 2
# Source text: The ex vivo studies used both male and female rats weighing between 230 and 250 g. Animals were sacrificed using light anaesthesia with CO2 and cervical dislocation. The sciatic nerve of the rat, consisting of 27,000 sciatic nerve fibres, was isolated in a three-chamber recording bath (Fig. 5b). The sciatic nerves were dissected from the spinal cord to the knee, immersed in oxygenated (O2, 100%) saline solution and cleaned. The composition of the saline was (in mmoles/L): 136 NaCl, 11 glucose, 4.7 KCl, 2.4 CaCl2, 1.1 MgCl2, 1 NaHCO3, 10 HEPES, pH = 7.2). All experiments were performed at a constant temperature, 26.0±1.0°C. […] The nerve was mounted in a three-chambered recording bath made of Plexiglas, which is described elsewhere, [30]. The recording bath consisted of the recording (R in Fig. 5b), perfusion (P) and stimulating (S) chambers, each with a volume of 12 mL. The nCAP (Fig. 5a) was generated by stimulating (1 Hz) the part of the nerve in the stimulating chamber and was recorded in the recording chamber every second using standard electrophysiological methods. The nCAP was monitored throughout the experiment as an indication of the vitality of the nerve fibres in the recording bath. […] Immediately after the nCAP was eliminated, the saline+compound was removed and the nerve was washed out. Then, recovery of the nCAP in normal stagnant saline was monitored for 24 h. It is worth noting that the recording bath is designed in such a way that the chambers with the saline and 2-H (the nerves and the recording electrodes) was shielded from the air by using the cover (c in Fig. 5b) to avoid evaporation of the volatile 2-H. The saline with 2-H was added through a small diameter opening on the cover.
# For further data analysis, the amplitude of the nCAPs, estimated from baseline to peak (Fig. 5), were measured at a specific time (every 1.0 s, 1.0 min or 1.0 h) and were expressed as a percentage of the amplitude of the nCAP at t = 0 (which was considered to be 100%). In the neuropharmacological experiments, time t = 0 was considered the time before application of the compound under investigation. […] The data were fitted in the program GraphPad Prism 5.0 using a one-phase exponential decay equation for the IC50. Data were analyzed by one-way ANOVA and Bonferroni’s post hoc tests, when required. Significance was determined using Students t-test or ANOVA as appropriate (p<0.05).
# hNav1.6 channels = biological target: T1, hNav1.6 channels (Homo sapiens, UniProt Q9UQD0); test: Patch-clamp (PatchXpress 7000A) on transfected CHO cells, hNav1.6; assay type: cell-based; conditions: CHO cells, n = 6, mean ± SEM, 2-H exposure limited to 3 min
# T1 construct: expressed in transfected cells; host or cells: CHO-K1 (ATCC CCL-61)
# T1 sequence (Q9UQD0 whole entry): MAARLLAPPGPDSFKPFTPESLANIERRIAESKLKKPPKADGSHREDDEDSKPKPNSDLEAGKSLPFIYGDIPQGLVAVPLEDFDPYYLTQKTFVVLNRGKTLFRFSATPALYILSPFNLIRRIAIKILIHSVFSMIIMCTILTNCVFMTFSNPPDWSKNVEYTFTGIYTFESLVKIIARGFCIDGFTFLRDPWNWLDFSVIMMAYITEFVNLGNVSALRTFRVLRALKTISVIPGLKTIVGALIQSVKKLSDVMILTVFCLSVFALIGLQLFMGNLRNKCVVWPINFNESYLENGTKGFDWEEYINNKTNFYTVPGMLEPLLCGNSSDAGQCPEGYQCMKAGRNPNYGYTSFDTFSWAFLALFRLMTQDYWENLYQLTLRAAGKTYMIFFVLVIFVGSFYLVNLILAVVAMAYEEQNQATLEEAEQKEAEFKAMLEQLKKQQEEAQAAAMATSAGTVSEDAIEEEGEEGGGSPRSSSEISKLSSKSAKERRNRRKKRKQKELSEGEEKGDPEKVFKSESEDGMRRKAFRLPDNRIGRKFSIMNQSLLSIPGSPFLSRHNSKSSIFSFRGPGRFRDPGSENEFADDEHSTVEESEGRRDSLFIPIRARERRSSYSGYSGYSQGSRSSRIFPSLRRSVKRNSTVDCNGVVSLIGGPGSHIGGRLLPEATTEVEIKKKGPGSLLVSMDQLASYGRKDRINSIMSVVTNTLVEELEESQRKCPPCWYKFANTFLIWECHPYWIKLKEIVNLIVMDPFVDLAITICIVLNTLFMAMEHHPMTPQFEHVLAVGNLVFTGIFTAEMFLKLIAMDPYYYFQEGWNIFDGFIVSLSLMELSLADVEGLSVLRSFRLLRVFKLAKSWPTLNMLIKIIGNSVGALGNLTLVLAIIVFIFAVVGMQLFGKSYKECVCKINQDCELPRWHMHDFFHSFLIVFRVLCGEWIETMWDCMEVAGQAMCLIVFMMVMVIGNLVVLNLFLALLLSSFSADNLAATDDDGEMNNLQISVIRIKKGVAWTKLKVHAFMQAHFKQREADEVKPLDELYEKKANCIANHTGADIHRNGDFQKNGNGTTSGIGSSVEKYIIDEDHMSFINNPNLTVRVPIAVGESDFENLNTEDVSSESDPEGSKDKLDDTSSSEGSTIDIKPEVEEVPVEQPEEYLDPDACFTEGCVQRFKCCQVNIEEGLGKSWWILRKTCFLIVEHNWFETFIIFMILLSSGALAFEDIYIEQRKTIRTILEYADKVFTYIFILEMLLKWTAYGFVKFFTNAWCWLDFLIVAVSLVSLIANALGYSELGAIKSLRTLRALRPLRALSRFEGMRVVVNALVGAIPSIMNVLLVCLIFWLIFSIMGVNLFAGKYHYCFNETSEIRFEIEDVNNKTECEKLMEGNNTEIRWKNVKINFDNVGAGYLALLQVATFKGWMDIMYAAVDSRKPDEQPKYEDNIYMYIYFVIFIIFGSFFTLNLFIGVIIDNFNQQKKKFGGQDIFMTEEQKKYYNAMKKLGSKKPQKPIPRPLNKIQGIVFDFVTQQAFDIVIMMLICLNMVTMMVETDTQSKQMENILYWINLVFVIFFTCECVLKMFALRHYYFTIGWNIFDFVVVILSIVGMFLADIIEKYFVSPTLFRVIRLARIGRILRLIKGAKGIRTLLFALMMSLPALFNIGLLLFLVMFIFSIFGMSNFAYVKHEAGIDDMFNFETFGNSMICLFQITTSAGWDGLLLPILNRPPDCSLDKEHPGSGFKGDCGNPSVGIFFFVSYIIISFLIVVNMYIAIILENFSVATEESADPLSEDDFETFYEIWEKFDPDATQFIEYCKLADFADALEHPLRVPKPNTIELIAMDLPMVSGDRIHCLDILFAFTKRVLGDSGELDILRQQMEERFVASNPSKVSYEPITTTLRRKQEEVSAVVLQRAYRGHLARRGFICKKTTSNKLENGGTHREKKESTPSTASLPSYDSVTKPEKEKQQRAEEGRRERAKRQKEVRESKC
# Source text: To test whether 2-H can act by blocking VGNaCs, the PatchXpress 7000A was used. Mammalian CHO (Chinese hamster ovary) transfected with ion hNav1.2 and hNav1.6 channels cDNAs (SCN2A and SCN8A genes) were exposed to 2-H under both tonic and phasic conditions. The mammalian CHO-K1 epithelial embryonic cell line (ATCC number CCL-61) from Cricetulus griseus was obtained from ATCC, Manassas, VA. CHO-K1 cells were transfected with either hNav1.2 or hNav1.6 channel cDNA (SCN2A and SCN8A genes, respectively) and were exposed to 2-H under both tonic and phasic conditions.
# The effects of 2-H were evaluated on hNav1.2 at 0.73, 1.46, 2.19, and 2.92 mg/mL and on hNav1.6 channels at 0.1, 0.36, 0.73, and 1.46 mg/mL, with each concentration tested in at least six cells (n = 6). Cells were exposed to each concentration of 2-H and measurements of the inward current were obtained within the first 3 min of exposure. […] Since the PatchXpress has open cell chambers where the testing occurs, there is no way to hermetically seal the experiment.
# Based on this analysis, we estimated the IC50.
# rat sciatic nerve = conditions: 80 mM, rat sciatic nerve in vitro; cited from earlier work
# wax moth larvae (WML) = test: Locomotory pattern of tethered wax moth larvae after injection; assay type: in vivo, Galleria mellonella; conditions: large WML
# Source text: To monitor the constant locomotory pattern of WML, the probe of a force-displacement transducer (FT-03C, Grass Instrument Company, USA), attached to a micromanipulator, was hooked onto the tail of the WML, while the head was carefully pinned to a wax substrate, [14]. The electrical signal generated by the rhythmic force produced during locomotion was amplified and fed to a computer through a data acquisition card interface (Keithley KPCI 3102, Keithley Instruments, Cleveland, OH, USA). Software designed using the facilities of Labview (Labview 5.1, National Instruments USA) permitted analysis of the recorded data.
# [2] = Table 3, 3.41 mg/mL, unit not given in Table 3, s
smiles,measurement,setting,value
CCCC(C)=O [2-pentanone],IT0,[1]; 3.41 mg/mL,greater than 24 h
same,IT0,[1]; [2],No measurable
same,IT50,"[1]; Table 3, 3.41 mg/mL",390.60 ± 0.10 s
CCCC(=O)CCC [4-heptanone],IT0,[1]; [2],283.57±16.89^b seconds
same,IT50,"[1]; Table 3, 3.41 mg/mL",45.24 ± 0.44 s
CCN(CC)CC(=O)Nc1c(C)cccc1C [lidocaine],IT0 (time required for 100% inhibition of the nCAP),[1]; 1.41 mg/mL,320.3 ± 14.96 s
same,IT50 (time to inhibit nCAP amplitude to 50% of control),[1]; 1.41 mg/mL,32.23 ± 3.16 s
same,IT0 (time required for 100% inhibition of the nCAP),[1]; 2.28 mg/mL,186.8 ± 8.07 s
same,IT50 (time to inhibit nCAP amplitude to 50% of control),[1]; 2.28 mg/mL,30.9 ± 0.22 s
same,IT0 (time required for 100% inhibition of the nCAP),[1]; 3.41 mg/mL,147.50 ± 9.96 s
same,IT50 (time to inhibit nCAP amplitude to 50% of control),[1]; 3.41 mg/mL,27.11 ± 3.16 s
same,IT0 (time required for 100% inhibition of the nCAP),[1]; 10 mg/mL,101.3 ± 2.16 s
same,IT50 (time to inhibit nCAP amplitude to 50% of control),[1]; 10 mg/mL,12.0 ± 0.95 s
same,IC50,"[1]; Rattus norvegicus, read-out: IC50 from concentration-response curves of the IT0 values",337 µg/mL
same,recovery of nCAP amplitude after wash with normal saline,"[1]; after elimination of nCAP, remained at this level for at least 24 h, n = 8",95.5%
same,IC50,"hNav1.6 channels; hNav1.6 IC50, Phasic Experiment",299 µM
same,IC50,"hNav1.6 channels; hNav1.6 IC50, Tonic Experiment",1240 µM
same,effect on axonal membrane,rat sciatic nerve,disrupts the axonal membrane
same,time to full recovery of locomotory pattern,"wax moth larvae (WML); 0.81 mg injected, n = 5",6.42 h
same,effect of injection on large WML,"wax moth larvae (WML); 1.63 mg injected, 12 cases",lethal effect
CCC(=O)CC [3-pentanone],IT0,[1]; [2],765.00 ± 86.60 s
same,IT50,"[1]; Table 3, 3.41 mg/mL",230.30 ± 1.29 s
CCCCCC(=O)CC [3-octanone],IT0,[1]; [2],722.50 ± 95.66 s
same,IT50,"[1]; Table 3, 3.41 mg/mL",117.10 ± 0.53 s
CCCCC(=O)CC [3-heptanone],IT0,[1]; [2],258.00±11.47^b seconds
same,IT50,"[1]; Table 3, 3.41 mg/mL",40.82 ± 1.67 s
CCCCC(C)=O [2-hexanone],IT0,[1]; [2],401.00 ± 33.20 s
same,IT50,"[1]; Table 3, 3.41 mg/mL",74.42 ± 0.79 s
CCCCCCC(C)=O [2-octanone],IT0,[1]; [2],555.00 ± 75.00 s
same,IT50,"[1]; Table 3, 3.41 mg/mL",81.45 ± 1.58 s
